These results are taken from ChEMBL document CHEMBL1147291, “Bioactive compounds from the root of Myrsine africana” (J Nat Prod, 1989).

Data set [1] has as its system A549. The data set is described as follows: Cytotoxicity against human A549 cells. It counts as functional. Conditions: read-out: ED50 (the source's name).
In data set [2] the test system is HT-29. The data set is described as follows: Cytotoxicity against human HT-29 cells. Type of data set: functional. Particulars: read-out: ED50 (the source's name).
Data set [3] relates to Artemia. The data set is described as follows: Toxicity in brine shrimp. It counts as organism-based. Conditions: in vivo.
Data set [4] is described as follows: Cytotoxicity against human KBMRI cells. Type of data set: functional. Conditions: read-out: ED50 (the source's name).
The subject of data set [5] is Agrobacterium tumefaciens. The data set is described as follows: Antitumor activity against Agrobacterium tumefaciens-induced crown gall tumors in potato tubers by potato disk test. Type of data set: functional.
Data set [6] deals with P388. The data set is described as follows: In vivo cytotoxicity against mouse P388 cells relative to control. Type of data set: functional.

In brackets after ≈: the same amount, converted by molar mass.

With `Cc1cc(O)c2c(c1)C(=O)c1cc(O)cc(O)c1C2=O` [EMODIN], the EC50 is 4.2 µg/mL (≈ 15.5 µM) in data set [1], greater than 10 µg/mL in data set [2] and 6 µg/mL (≈ 22.2 µM) in data set [4]. The LC50 in data set [3] came to 35 ppm. Further, in data set [5], the “inhibition (INH)” value worked out at 40%. The compound further registered a T/C in data set [6] of 127%.
As for `Cc1cc2c(c(O)c1O)C(=O)c1c(O)cccc1C2=O`, the EC50 in data set [1] is 3.1 µg/mL (≈ 11.5 µM); in data set [2] it was 2.8 µg/mL (≈ 10.4 µM); in data set [4], 5.7 µg/mL (≈ 21.1 µM).
Consider `CC(=O)c1c(C)cc2cccc(O)c2c1O` [NEPODIN], for which the EC50 was 31 µg/mL (≈ 143 µM) in data set [1], 36.7 µg/mL (≈ 170 µM) in data set [2] and 36.7 µg/mL (≈ 170 µM) in data set [4]. The LC50 in data set [3] came to 105 ppm.
As for `COc1cc(O)c2c(c1)COC2=O`, the EC50 in data set [1] is greater than 100 µg/mL; in data set [2], 28 µg/mL (≈ 155 µM); in data set [4], greater than 100 µg/mL. The compound also returned an LC50 in data set [3] greater than 1000 ppm.

Usually LC50 stands for the concentration that kills 50% of the test population. The low end stands for greater toxicity, the high end for lower toxicity. The T/C is the ratio of treated to control.
